ChEMBL document CHEMBL4265872, “Around the macrolide - Impact of 3D structure of macrocycles on lipophilicity and cellular accumulation” (Eur J Med Chem, 2017)

Key:
[1] = Chromatographic hydrophobicity, logD of the compound at pH 7.4 by fast-gradient RP-HPLC method; type: physicochemical; conditions: buffer
[2] = Drug accumulation in human NCI-H292 cells at 3 to 10 uM incubated for 3 hrs by LC-MS analysis relative to azithromycin; type: ADME, cell-based; conditions: nci-h292, 3 h

Row | chromatographic logD [1] | Drug uptake [2] [%] | SMILES
1 | 3.86 | 121 | CC[C@H]1OC(=O)[C@H](C)[C@@H](O[C@H]2C[C@@](C)(OC)[C@@H](OC(=O)CN(CC)CC)[C@H](C)O2)[C@H](C)[C@@H](O[C@@H]2O[C@H](C)C[C@H](N(C)C)[C@H]2O)[C@](C)(OC)C[C@@H](C)C(=O)N[C@H](C)[C@@H](O)[C@]1(C)O
2 | 3.61 | 48 | CC[C@H]1OC(=O)[C@H](C)[C@@H](O[C@H]2C[C@@](C)(OC)[C@@H](O)[C@H](C)O2)[C@H](C)[C@@H](O[C@@H]2O[C@H](C)C[C@H](N(C)C)[C@H]2O)[C@](C)(OC)C[C@@H](C)/C(=N\O)[C@H](C)[C@@H](O)[C@]1(C)O
3 | 2.31 | 0 | CC[C@H]1OC(=O)[C@H](C)[C@@H](O[C@H]2C[C@@](C)(OC)[C@@H](O)[C@H](C)O2)[C@H](C)[C@@H](O[C@@H]2O[C@H](C)C[C@H](N(C)C)[C@H]2O)[C@](C)(O)C[C@@H](C)CN(CCCNC(=O)C2CCC2)[C@H](C)[C@@H](O)[C@]1(C)O
4 | 2.58 | 26 | CC[C@H]1OC(=O)[C@H](C)[C@@H](O[C@H]2C[C@@](C)(OC)[C@@H](O)[C@H](C)O2)[C@H](C)[C@@H](O[C@@H]2O[C@H](C)C[C@H](N(C)C)[C@H]2O)[C@](C)(O)C[C@@H](C)CN(C)[C@H](C)[C@@H](OCCCNC(=O)COC)[C@]1(C)O
5 | 1.78 | 21 | CC[C@H]1OC(=O)[C@H](C)[C@@H](OCCCNC(=O)C2CCC2)[C@H](C)[C@@H](O[C@@H]2O[C@H](C)C[C@H](N(C)C)[C@H]2O)[C@](C)(O)C[C@@H](C)CN(C)[C@H](C)[C@@H](O)[C@]1(C)O
6 | 2.72 | 7 | CCCCC(=O)NCCCN1C[C@H](C)C[C@@](C)(O)[C@H](O[C@@H]2O[C@H](C)C[C@H](N(C)C)[C@H]2O)[C@@H](C)[C@H](O[C@H]2C[C@@](C)(OC)[C@@H](O)[C@H](C)O2)[C@@H](C)C(=O)O[C@H](CC)[C@@](C)(O)[C@H](O)[C@H]1C
7 | 3.74 | 756 | CCCCC(=O)NCCCO[C@@H]1[C@@H](C)N(C)C[C@H](C)C[C@@](C)(O)[C@H](O[C@@H]2O[C@H](C)C[C@H](N(C)C)[C@H]2O)[C@@H](C)[C@H](O[C@H]2C[C@@](C)(OC)[C@@H](O)[C@H](C)O2)[C@@H](C)C(=O)O[C@H](CC)[C@@]1(C)O
8 | 2.94 | 9 | CC[C@H]1OC(=O)[C@H](C)[C@@H](O[C@H]2C[C@@](C)(OC)[C@@H](O)[C@H](C)O2)[C@H](C)[C@@H](O[C@@H]2O[C@H](C)C[C@H](N(C)C)[C@H]2O)[C@](C)(OC)C[C@@H](C)/C(=N\O)[C@H](C)[C@@H](O)[C@]1(C)OCCCNC(C)=O
9 | 3.08 | 27 | CC[C@H]1OC(=O)[C@H](C)[C@@H](O[C@H]2C[C@@](C)(OC)[C@@H](O)[C@H](C)O2)[C@H](C)[C@@H](O[C@@H]2O[C@H](C)C[C@H](N(C)CCCNC(C)=O)[C@H]2O)[C@](C)(OC)C[C@@H](C)C(=O)[C@H](C)[C@@H](O)[C@]1(C)O
10 | 2.62 | 51 | CC[C@H]1OC(=O)[C@H](C)[C@@H](O[C@H]2C[C@@](C)(OC)[C@@H](OCCCNC(=O)C3CCC3)[C@H](C)O2)[C@H](C)[C@@H](O[C@@H]2O[C@H](C)C[C@H](N(C)C)[C@H]2O)[C@](C)(O)C[C@@H](C)CN(C)[C@H](C)[C@@H](O)[C@]1(C)O
11 | 4.1 | 357 | CCCCCCCC(=O)NCCCO[C@H]1[C@H](C)O[C@@H](O[C@H]2[C@H](C)[C@@H](O[C@@H]3O[C@H](C)C[C@H](N(C)C)[C@H]3O)[C@](C)(O)C[C@@H](C)CN(C)[C@H](C)[C@@H](O)[C@](C)(O)[C@@H](CC)OC(=O)[C@@H]2C)C[C@@]1(C)OC
12 | 3.49 | 63 | CCCCCCCC(=O)NCCCN1C[C@H](C)C[C@@](C)(O)[C@H](O)[C@@H](C)[C@H](O)[C@@H](C)C(=O)O[C@H](CC)[C@@](C)(O)[C@H](O)[C@H]1C
13 | – | 2 | CC[C@H]1OC(=O)[C@H](C)[C@@H](O[C@H]2C[C@@](C)(OC)[C@@H](O)[C@H](C)O2)[C@H](C)[C@@H](O[C@@H]2O[C@H](C)C[C@H](N(C)C)[C@H]2O)[C@](C)(O)C[C@@H](C)CN(CCCNC(=O)COC)[C@H](C)[C@@H](O)[C@]1(C)O
14 | 3.08 | 30 | CC[C@H]1OC(=O)[C@H](C)[C@@H](O[C@H]2C[C@@](C)(OC)[C@@H](OCCCNC(C)=O)[C@H](C)O2)[C@H](C)[C@@H](O[C@@H]2O[C@H](C)C[C@H](N(C)C)[C@H]2O)[C@](C)(OC)C[C@@H](C)C(=O)[C@H](C)[C@@H](O)[C@]1(C)O
15 | 1.86 | 0 | CCC(=O)NCCCN1C[C@H](C)C[C@@](C)(O)[C@H](O[C@@H]2O[C@H](C)C[C@H](N(C)C)[C@H]2O)[C@@H](C)[C@H](O[C@H]2C[C@@](C)(OC)[C@@H](O)[C@H](C)O2)[C@@H](C)C(=O)O[C@H](CC)[C@@](C)(O)[C@H](O)[C@H]1C
16 | 5.07 | 575 | CCCCCCCC(=O)NCCCO[C@@H]1[C@@H](C)C(=O)[C@H](C)C[C@@](C)(OC)[C@H](O[C@@H]2O[C@H](C)C[C@H](N(C)C)[C@H]2O)[C@@H](C)[C@H](O[C@H]2C[C@@](C)(OC)[C@@H](O)[C@H](C)O2)[C@@H](C)C(=O)O[C@H](CC)[C@@]1(C)O
17 | – | 59 | CC[C@H]1OC(=O)[C@H](C)[C@@H](OCCCNC(=O)c2c(C)nn(C)c2Cl)[C@H](C)[C@@H](O[C@@H]2O[C@H](C)C[C@H](N(C)C)[C@H]2O)[C@](C)(O)C[C@@H](C)CN(C)[C@H](C)[C@@H](O)[C@]1(C)O
18 | 2.52 | 60 | CC[C@H]1OC(=O)[C@H](C)[C@@H](O[C@H]2C[C@@](C)(OC)[C@@H](OCCCNC(=O)c3c(C)nn(C)c3Cl)[C@H](C)O2)[C@H](C)[C@@H](O[C@@H]2O[C@H](C)C[C@H](N(C)C)[C@H]2O)[C@](C)(O)C[C@@H](C)CN(C)[C@H](C)[C@@H](O)[C@]1(C)O
19 | 3.16 | 124 | CC[C@H]1OC(=O)[C@H](C)[C@@H](O[C@H]2C[C@@](C)(OC)[C@@H](O)[C@H](C)O2)[C@H](C)[C@@H](O[C@@H]2O[C@H](C)C[C@H](N(C)C)[C@H]2OCCCNC(=O)C2CCC2)[C@](C)(O)C[C@@H](C)CN(C)[C@H](C)[C@@H](O)[C@]1(C)O
20 | 2.06 | 1 | CC[C@H]1OC(=O)[C@H](C)[C@@H](O[C@H]2C[C@@](C)(OC)[C@@H](O)[C@H](C)O2)[C@H](C)[C@@H](O[C@@H]2O[C@H](C)C[C@H](N(C)C)[C@H]2O)[C@](C)(O)C[C@@H](C)CN(CCCNC(C)=O)[C@H](C)[C@@H](O)[C@]1(C)O
21 | 3.5 | 138 | CC[C@H]1OC(=O)[C@H](C)[C@@H](O[C@H]2C[C@@](C)(OC)[C@@H](O)[C@H](C)O2)[C@H](C)[C@@H](O[C@@H]2O[C@H](C)C[C@H](N(C)C)[C@H]2O)[C@](C)(O)C[C@@H](C)CN(C)[C@H](C)[C@@H](OCCCNC(=O)C2CCC2)[C@]1(C)O
22 | 2.31 | 17 | CC[C@H]1OC(=O)[C@H](C)[C@@H](O)[C@H](C)[C@@H](O[C@@H]2O[C@H](C)C[C@H](N(C)C)[C@H]2O)[C@](C)(OC)C[C@@H](C)/C(=N\O)[C@H](C)[C@@H](O)[C@]1(C)O
23 | 2.16 | 9 | CC[C@H]1OC(=O)[C@H](C)[C@@H](O[C@H]2C[C@@](C)(OC)[C@@H](OCCCNC(=O)COC)[C@H](C)O2)[C@H](C)[C@@H](O[C@@H]2O[C@H](C)C[C@H](N(C)C)[C@H]2O)[C@](C)(O)C[C@@H](C)CN(C)[C@H](C)[C@@H](O)[C@]1(C)O
24 | 2.41 | 7 | CC[C@H]1OC(=O)[C@H](C)[C@@H](O[C@H]2C[C@@](C)(OC)[C@@H](O)[C@H](C)O2)[C@H](C)[C@@H](O[C@@H]2O[C@H](C)C[C@H](N(C)C)[C@H]2O)[C@](C)(O)C[C@@H](C)CN(C)[C@H](C)[C@@H](OCCCNC(C)=O)[C@]1(C)O
25 | 6.44 | 363 | CCCCCCCC(=O)NCCCN(C)[C@H]1C[C@@H](C)O[C@@H](O[C@@H]2[C@@H](C)[C@H](O[C@H]3C[C@@](C)(OC)[C@@H](O)[C@H](C)O3)[C@@H](C)C(=O)O[C@H](CC)[C@@](C)(O)[C@H](O)[C@@H](C)C(=O)[C@H](C)C[C@@]2(C)OC)[C@@H]1O
26 | 3.01 | 51 | CC[C@H]1OC(=O)[C@H](C)[C@@H](O[C@H]2C[C@@](C)(OC)[C@@H](O)[C@H](C)O2)[C@H](C)[C@@H](O[C@@H]2O[C@H](C)C[C@H](N(C)C)[C@H]2O)[C@](C)(O)C[C@@H](C)CN(C)[C@H](C)[C@@H](OCCCNC(=O)c2c(C)nn(C)c2Cl)[C@]1(C)O
27 | 2.72 | 11 | CC[C@H]1OC(=O)[C@H](C)[C@@H](O[C@H]2C[C@@](C)(OC)[C@@H](O)[C@H](C)O2)[C@H](C)[C@@H](O[C@@H]2O[C@H](C)C[C@H](N(C)C)[C@H]2O)[C@](C)(OC)C[C@@H](C)C(=O)[C@H](C)[C@@H](OCCCNC(C)=O)[C@]1(C)O
28 | 1.4 | 14 | CC[C@H]1OC(=O)[C@H](C)[C@@H](OCCCNC(=O)COC)[C@H](C)[C@@H](O[C@@H]2O[C@H](C)C[C@H](N(C)C)[C@H]2O)[C@](C)(O)C[C@@H](C)CN(C)[C@H](C)[C@@H](O)[C@]1(C)O
29 | 2.06 | 6 | CC[C@H]1OC(=O)[C@H](C)[C@@H](O[C@H]2C[C@@](C)(OC)[C@@H](OCCCNC(C)=O)[C@H](C)O2)[C@H](C)[C@@H](O[C@@H]2O[C@H](C)C[C@H](N(C)C)[C@H]2O)[C@](C)(O)C[C@@H](C)CN(C)[C@H](C)[C@@H](O)[C@]1(C)O
30 | 2.41 | 10 | CC[C@H]1OC(=O)[C@H](C)[C@@H](O[C@H]2C[C@@](C)(OC)[C@@H](O)[C@H](C)O2)[C@H](C)[C@@H](O[C@@H]2O[C@H](C)C[C@H](N(C)C)[C@H]2O)[C@](C)(OC)C[C@@H](C)C(=O)N[C@H](C)[C@@H](O)[C@]1(C)O
